Paper PMC11748363, “Antimicrobial and Antiproliferative Properties of 2‐Phenyl‐N‐(Pyridin‐2‐yl)acetamides” (Chemical Biology & Drug Design, 2025)
pIC50: −log10 of the molar value. ≈ marks a conversion by molar mass, not a printed value. Like-named read-outs stand apart in the source and are kept apart here.

Key:
[1] = buffer, 3 h, 1 µM, pH 7.4
Experimental: HPLC-MS stability determination in PBS (pH 7.4)
Briefly, compounds were dissolved in DMSO to produce stock sample solutions.
NaOH. The concentration of tested compounds was set at 1 µM.
After that, 150 µL of supernatant was
transferred to the vial and analyzed by LC-MS.
3000 RS coupled with a Q Exactive Plus orbitrap mass spectrometer to obtain the areas (Thermo Fisher
Scientific, Bremen, Germany). Reverse-phase C18 column Kinetex EVO (Phenomenex, Torrance, CA,
USA) was used as a stationary phase, and purified water with 0.1% formic acid (mobile phase A) and
LC-MS grade acetonitrile with 0.1% formic acid (mobile phase B) were used as the mobile phases.
Gradient elution was used to determine purities and mass spectra. The method started with 5% B for
0.3 min, then the gradient switched to 100% B in the third min, remained at 100% B for 0.7 min and
then went back to 5% B with equilibration for 3.5 min. The total run time of the method was 7.5 min.
The column temperature was kept constant at 27 °C, the flow of the mobile phase was 0.5 mL/min,
and the injection volume was 1 µL.

[2] = tested on: Enterococcus faecalis CCM 4224, ATCC 29212; test: Antibacterial microdilution broth MIC, EF; assay type: cell-based
[3] = tested on: Klebsiella pneumoniae CCM 4415, ATCC 10031; test: Antibacterial microdilution broth MIC, KP
[4] = tested on: Trichophyton interdigitale CCM 8377, ATCC 9533; test: Antifungal microdilution broth MIC, TI; conditions: Trichophyton interdigitale
[5] = tested on: Mycolicibacterium smegmatis DSM 43465; test: Antimycobacterial microdilution broth MIC (resazurin), M. smegmatis; assay type: cell-based; conditions: DSM43465, read-out: MIC M. smegmatis
[6] = tested on: Candida tropicalis CCM 8264, ATCC 750; test: Antifungal microdilution broth MIC, CT
[7] = tested on: Candida albicans CCM 8320, ATCC 24433; test: Antifungal microdilution broth MIC, CA
[8] = tested on: Escherichia coli CCM 3954, ATCC 25922; test: Antibacterial microdilution broth MIC, EC; assay type: cell-based
A498 cell line = test: Cytotoxicity CellTiter 96, A498; assay type: cell-based; conditions: Homo sapiens, 24 h incubation
Experimental: (§1) The cytotoxicity of final compounds was determined in human hepatocellular carcinoma cell line HepG2. Additional testing of selected compounds was performed on human epithelial kidney cancer cell line A498, human prostate cancer cell line PC‐3, human glioblastoma cell line U‐87 MG, and normal human proximal tubule cell line HK‐2.
(§2) Cytotoxicity determination […]
(§3) For subculturing, the cells were harvested after trypsin/EDTA (Sigma–Aldrich) treatment at 37 °C. To evaluate cytotoxicity, the cells treated with the tested substances were used as experimental groups whereas untreated HepG2 cells served as controls. The cells were seeded in density 10,000 cells per well in a 96 well plate. The next day the cells were treated with each of the tested substances dissolved in DMSO. The tested substances were […]
(§4) in triplicates according to their solubility. Simultaneously, the controls representing 100% cell viability, 0% cell viability (the cells treated with 10% DMSO), no cell control and vehiculum controls were also […]
(§5) the reagent from the kit CellTiter 96 AQueous One Solution Cell Proliferation Assay (CellTiter 96; PROMEGA, Fitchburg, USA) was added. After 2h incubation at 37 °C, absorbance of samples was recorded at 490 nm (TECAN, Infinita M200, Austria). A standard toxicological parameter IC50 was calculated by nonlinear regression from a semilogarithmic plot of incubation concentration versus percentage of absorbance relative to untre ated controls using GraphPad Prism 8 software.
Human epithelial kidney carcinoma A498 cell line, obtained from American Type Culture Collection (ATCC, Manassas, VA, USA, catalogue No.: HTB -44), was cultured in RPMI medium, Human normal kidney proximal tubule HK-2 cell line obtained from ATCC (ATCC, Manassas, VA, USA, catalogue No.:
(§6) Kaighn's Modification of Ham's F-12 Medium and human glioblastoma astrocytoma U-87 MG cell line, […]
Glucose medium. All cultures were supplemented with 10% fetal bovine serum, 1% non-essential amino acids (A498, HK-2 and U-87 MG), 1% sodium pyruvate (A498, HK-2 and U-87 MG) and 2 mM L-glutamine. […]

U‐87 MG cell line = test: Cytotoxicity CellTiter 96, U-87 MG; assay type: cell-based; conditions: Homo sapiens, 24 h incubation
Experimental: as §1, §2, §3, §4
as §5, with “software. […]” for “software.”
as §6
(§7) Glucose medium. All cultures were supplemented with 10% fetal bovine serum, 1% non-essential amino acids (A498, HK-2 and U-87 MG), 1% sodium pyruvate (A498, HK-2 and U-87 MG) and 2 mM L-glutamine. All cell culture consumables were purchased from Merck (Darmstadt, Germany). The cells

PC‐3 cell line = test: Cytotoxicity CellTiter 96, PC-3; assay type: cell-based; conditions: Homo sapiens, 24 h incubation
Experimental: as §1, §2, §3, §4
as §5, with “software. […]” for “software.”
as §6, §7

Row | SMILES | concentration remaining (hydrolytic stability) [1] [%] | MIC ([2]; 24 h, read-out: MIC EF 24h) [µM] | MIC ([2]; 48 h, read-out: MIC EF 48h) [µM] | MIC KP 24h [3] [µM] | MIC KP 48h [3] [µM] | MIC ([4]; 72 h, read-out: MIC TI 72h) [µM] | MIC ([4]; 120 h, read-out: MIC TI 120h) [µM] | MIC [5] [µg/mL] | MIC ([6]; 24 h, read-out: MIC CT 24h) [µM] | MIC ([6]; 48 h, read-out: MIC CT 48h) [µM] | MIC ([7]; 24 h, read-out: MIC CA 24h) [µM] | MIC ([7]; 48 h, read-out: MIC CA 48h) [µM] | MIC ([8]; 24 h, read-out: MIC EC 24h) [µM] | MIC ([8]; 48 h, read-out: MIC EC 48h) [µM] | pIC50 (A498 cell line) | pIC50 (U‐87 MG cell line) | pIC50 (PC‐3 cell line)
1 | COc1ccc(CC(=O)Nc2cccc(Cl)n2)cc1 [Compound 12, 2-(4-methoxyphenyl)-N-(6-chloropyridin-2-yl)acetamide] | ≥ 90 | 500 (≈ 138 µg/mL) | 500 (≈ 138 µg/mL) | > 500 | > 500 | > 500 | > 500 | 62.5 (≈ 226 µM) | > 500 | > 500 | > 500 | > 500 | > 500 | > 500 | – | – | –
2 | O=C(Cc1cccc(Cl)c1)Nc1ccc(Cl)cn1 [Compound 17, 2-(3-chlorophenyl)-N-(5-chloropyridin-2-yl)acetamide] | – | > 500 | > 500 | > 500 | > 500 | 500 (≈ 141 µg/mL) | 500 (≈ 141 µg/mL) | > 500 | > 500 | > 500 | > 500 | > 500 | > 500 | > 500 | 3.87 | 3.79 | 3.67
3 | O=C(Cc1ccccc1C(F)(F)F)Nc1cccc(Cl)n1 [Compound 24] | ≥ 90 | > 500 | > 500 | > 500 | > 500 | 500 (≈ 157 µg/mL) | 500 (≈ 157 µg/mL) | > 500 | > 500 | > 500 | > 500 | > 500 | > 500 | > 500 | 3.56 | < 3.60 | < 4.00
4 | O=C(Cc1cccc(C(F)(F)F)c1)Nc1ccc(Cl)cn1 [Compound 26] | – | > 500 | > 500 | > 500 | > 500 | 500 (≈ 157 µg/mL) | 500 (≈ 157 µg/mL) | 125 (≈ 397 µM) | > 500 | > 500 | > 500 | > 500 | > 500 | > 500 | 3.89 | 3.80 | 4.14
